The source of these data is publication PMC8708751, “Hit Identification of a Novel Quinazoline Sulfonamide as a Promising EphB3 Inhibitor: Design, Virtual Combinatorial Library, Synthesis, Biological Evaluation, and Docking Simulation Studies” (Pharmaceuticals, 2021).

SMILES strings stand for the structures. Like-named read-outs stand apart in the source and are kept apart here. Some results are limits rather than exact numbers.

The target of one data set is T1, EphB3 kinase (Homo sapiens, UniProt P54753).
T1 construct: purchased Reaction Biology Co. (Kinase HotSpot service)
T1 sequence (P54753 34-998): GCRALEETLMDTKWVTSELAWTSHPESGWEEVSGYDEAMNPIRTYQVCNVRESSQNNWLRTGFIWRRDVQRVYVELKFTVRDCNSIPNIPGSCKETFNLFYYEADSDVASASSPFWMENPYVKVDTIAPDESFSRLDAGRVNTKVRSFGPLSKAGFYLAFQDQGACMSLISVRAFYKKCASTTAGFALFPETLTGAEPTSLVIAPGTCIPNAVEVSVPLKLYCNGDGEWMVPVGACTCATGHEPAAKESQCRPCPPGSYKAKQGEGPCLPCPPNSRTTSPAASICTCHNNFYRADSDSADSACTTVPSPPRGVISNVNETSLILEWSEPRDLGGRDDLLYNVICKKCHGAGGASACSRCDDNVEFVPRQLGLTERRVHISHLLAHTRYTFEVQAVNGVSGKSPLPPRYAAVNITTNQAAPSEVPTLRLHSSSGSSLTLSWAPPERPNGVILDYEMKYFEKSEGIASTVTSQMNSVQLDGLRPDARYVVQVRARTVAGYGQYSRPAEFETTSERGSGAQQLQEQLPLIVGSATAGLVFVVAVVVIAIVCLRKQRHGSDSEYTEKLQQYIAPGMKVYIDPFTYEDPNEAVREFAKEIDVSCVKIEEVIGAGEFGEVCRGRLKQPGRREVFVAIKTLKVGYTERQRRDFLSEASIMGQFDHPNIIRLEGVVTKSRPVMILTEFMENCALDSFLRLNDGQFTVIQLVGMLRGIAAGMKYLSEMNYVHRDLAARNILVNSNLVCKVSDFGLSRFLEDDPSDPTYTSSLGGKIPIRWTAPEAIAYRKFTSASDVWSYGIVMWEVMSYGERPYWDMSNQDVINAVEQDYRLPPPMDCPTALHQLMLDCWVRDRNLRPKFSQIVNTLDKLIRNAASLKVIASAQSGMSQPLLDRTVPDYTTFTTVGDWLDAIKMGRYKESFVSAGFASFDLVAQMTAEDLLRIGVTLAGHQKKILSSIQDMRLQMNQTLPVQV
The data set can be described thus: EphB3 kinase inhibition assay (HotSpot). The format is biochemical. Conditions: EphB3 kinase, 10 µM compound, 10 µM ATP; read-out: Average % Enzyme Inhibition at 10 µM (Relative to DMSO Control). Here is the method:
The synthesized compounds were subjected to in vitro screening over EphB3 kinase. A single dose of 10 µM concentration of each target compound was used in EphB3 kinase inhibition assay, at 10 µM ATP, applying HotSpot^SM technology.
The HotSpot assay platform contains specific kinase/substrate pairs along with required cofactors. Base reaction buffer: 20 mM Hepes (pH 7.5), 10 mM MgCl2, 1 mM EGTA, 0.02% Brij35, 0.02 mg/mL BSA, 0.1 mM Na3VO4, 2 mM DTT, 1% DMSO. The tested compounds were dissolved in 100% DMSO to specific concentration. The serial dilution was conducted by Integra Viaflo Assist in DMSO (Sigma-Aldrich, Burlington, MA, USA). The reaction mixture containing the examined compound and 33P-ATP was incubated at room temperature for 2 h, and radioactivity was detected by filter-binding method. Kinase activity data were expressed as the percent remaining kinase activity in test samples compared to vehicle (dimethyl sulfoxide) reactions. IC50 values and curve fits were obtained using Prism (GraphPad Software, San Diego, CA, USA).

For the next data set, the target named is T2, EGFR kinase (Homo sapiens, UniProt P00533).
T2 construct: purchased Reaction Biology Co. (Kinase HotSpot service)
The data set can be described thus: EGFR kinase inhibition assay (HotSpot). The format is biochemical. Conditions: for inhibition at 10 µM / Average % Enzyme Inhibition (Relative to DMSO Controls) at 10 µM: 10 µM compound; for inhibition at 10 µM: 10 µM ATP as printed, read-out: Average % Enzyme Inhibition (Relative to DMSO Controls) at 10 µM; for Average % Enzyme Inhibition (Relative to DMSO Controls) at 10 µM: 10 M [sic] ATP.

The mark [1] stands for this setting: EGFR kinase, dose dependent assay, read-out: IC50.
Setting [2] is: EGFR, read-out: EC50 of the curve fit printed in Figure 6 (IC50 per legend).

T2 sequence (P00533 25-1210): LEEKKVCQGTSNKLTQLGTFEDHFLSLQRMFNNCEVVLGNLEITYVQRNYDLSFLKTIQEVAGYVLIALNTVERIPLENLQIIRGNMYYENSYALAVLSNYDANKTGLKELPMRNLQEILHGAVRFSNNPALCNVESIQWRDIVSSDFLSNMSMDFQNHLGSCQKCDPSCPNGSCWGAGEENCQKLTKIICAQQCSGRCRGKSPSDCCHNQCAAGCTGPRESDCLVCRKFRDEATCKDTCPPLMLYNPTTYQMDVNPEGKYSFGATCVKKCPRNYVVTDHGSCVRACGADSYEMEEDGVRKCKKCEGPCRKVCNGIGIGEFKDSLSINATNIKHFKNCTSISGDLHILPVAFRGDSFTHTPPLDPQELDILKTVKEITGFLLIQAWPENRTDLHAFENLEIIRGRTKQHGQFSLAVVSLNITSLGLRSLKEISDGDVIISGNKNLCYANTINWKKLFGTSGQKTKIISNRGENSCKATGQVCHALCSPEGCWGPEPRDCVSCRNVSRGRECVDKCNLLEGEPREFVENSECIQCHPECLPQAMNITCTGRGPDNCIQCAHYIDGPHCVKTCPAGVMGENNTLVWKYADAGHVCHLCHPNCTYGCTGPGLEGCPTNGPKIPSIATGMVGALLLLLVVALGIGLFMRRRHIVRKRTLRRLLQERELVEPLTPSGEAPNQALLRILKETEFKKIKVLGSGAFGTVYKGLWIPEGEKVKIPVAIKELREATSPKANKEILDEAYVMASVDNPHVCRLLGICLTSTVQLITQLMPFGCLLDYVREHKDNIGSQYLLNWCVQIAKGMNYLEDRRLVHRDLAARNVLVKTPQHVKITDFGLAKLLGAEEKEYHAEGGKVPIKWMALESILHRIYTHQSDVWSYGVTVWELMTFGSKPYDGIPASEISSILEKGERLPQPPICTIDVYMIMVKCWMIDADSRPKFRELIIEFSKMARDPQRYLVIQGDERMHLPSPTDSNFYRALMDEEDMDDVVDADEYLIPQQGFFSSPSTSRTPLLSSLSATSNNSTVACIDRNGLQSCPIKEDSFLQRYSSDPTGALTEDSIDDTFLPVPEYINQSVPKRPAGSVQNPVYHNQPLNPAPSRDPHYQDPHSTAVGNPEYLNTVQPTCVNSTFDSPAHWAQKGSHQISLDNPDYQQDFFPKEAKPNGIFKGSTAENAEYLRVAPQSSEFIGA

On to `NS(=O)(=O)c1ccc(Nc2ncnc3ccc(Br)cc23)cc1` [Compound 3a, 4-((6-Bromoquinazolin-4-yl)amino)benzenesulfonamide], for which the melting point – broadly, the temperature, or range, at which the solid turns liquid – is 322.2 to 324.5 °C. At EphB3 kinase, the inhibition – broadly, the drop in the measured response relative to a control, in per cent – at 10 µM is 26.97 ± 0.24%. Also, at EGFR kinase (EGFR kinase), the inhibition at 10 µM was -13.2 ± 4.31%.
Taken in the same sequence, the figures for `NS(=O)(=O)c1ccc(Nc2ncnc3ccc(-c4cccnc4)cc23)cc1` [Compound 4a, 4-((6-(Pyridin-3-yl)quinazolin-4-yl)amino)benzenesulfonamide] were 315.1 to 316.2 °C, 25.81 ± 0.24% and 0.56 ± 4.32%.
Turning to `NS(=O)(=O)c1ccc(Nc2ncnc3ccc(-c4ccc(C=O)o4)cc23)cc1` [Compound 4b, 4-((6-(5-Formylfuran-2-yl)quinazolin-4-yl)amino)benzenesulfonamide], the inhibition at 10 µM came to 26.7 ± 0.45% at EphB3 kinase and 25.2 ± 1.25% on EGFR kinase (EGFR kinase).
On to `NS(=O)(=O)c1ccc(Nc2ncnc3cc(-c4ccc(CN5CCOCC5)cc4)ccc23)cc1` [Compound 4d, 4-((7-(4-(Morpholinomethyl)phenyl)quinazolin-4-yl)amino)benzenesulfonamide], for which the melting point was 228.1 to 229.8 °C. Moreover, the inhibition at 10 µM on EphB3 kinase was 18.9 ± 1.09%. Also, at EGFR kinase (EGFR kinase), the inhibition at 10 µM is more than 50% and the “Average % Enzyme Inhibition (Relative to DMSO Controls) at 10 µM” value was 65.76 ± 0.98%. The IC50 (usually the concentration that gives 50% inhibition) on EGFR kinase (setting [1]) turned out to be 2760 nM. The IC50 on EGFR kinase (setting [2]) came out at 2760 nM.
For `NS(=O)(=O)c1cccc(Nc2ncnc3cc(-c4cccc(CN5CCOCC5)c4)ccc23)c1` [Compound 4e, 3-((7-(3-(Morpholinomethyl)phenyl)quinazolin-4-yl)amino)benzenesulfonamide], the melting point is 267.5 to 269 °C. Further, the inhibition at 10 µM at EphB3 kinase was -21.35 ± 0.09%. Also, at EGFR kinase (EGFR kinase), the inhibition at 10 µM is more than 50% and the “Average % Enzyme Inhibition (Relative to DMSO Controls) at 10 µM” value was found to be 63.28 ± 0.21%. Further, on EGFR kinase (setting [1]), the IC50 was found to be 1060 nM. For the same compound, the IC50 at EGFR kinase (setting [2]) was 1060 nM.
As to `NS(=O)(=O)c1cccc(Nc2ncnc3ccc(-c4cccnc4)cc23)c1` [Compound 4f, 3-((6-(Pyridin-3-yl)quinazolin-4-yl)amino)benzenesulfonamide], the melting point fell in the range of 320 to 321.5 °C. Further, the inhibition at 10 µM at EphB3 kinase was 23.5 ± 5.36%. In addition, the inhibition at 10 µM at EGFR kinase (EGFR kinase) was 4.57 ± 2.16%.
